Test results from patent publication US12459951B2, “Compounds that interact with RAS superfamily proteins for treatment of cancers, inflammatory diseases, rasopathies, and fibrotic disease” (SHY Therapeutics, LLC, priority 2022, dated 2025).

How the values were obtained:
KRas wild type = experiment: Ras GTP Binding Domain Inhibition Assay (Ras Superfamily Assay); details: 20 μM compound; for KRas wild type + SOS: % inh.: with SOS; for KRas wild type: % inh.: without SOS
How it was run: (§1)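 Ni-plate capture of His-tagged protein (10-30 μg/mL, o/n 4° C); cpd 20 μM or dilution series, 1% DMSO, 3 h RT ± Sos 556-1049 last h; 100 nM Cy-labelled GTP 45 min RT; 3× wash; fluorescence read.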

KRas G12D mutant = experiment: as above; details: 20 μM compound; for KRas G12D mutant + SOS: % inh.: with SOS; for KRas G12D mutant: % inh.: without SOS
How it was run: as §1

Rac-1 = target: T1, Rac-1 (Homo sapiens, UniProt P63000); experiment: as above; details: read-out: Rac-1: % inh.
T1 construct: made in house
How it was run: as §1

IL6 = experiment: IL-6 Quantification Assay (ELISA), LPS-stimulated RAW 264.7; format: cell-based; set-up: inhibition: dose or concentration left out as unconfirmed; details: Mus musculus, RAW264.7; read-out: IL-6: % inh.
Akt phosphorylation = experiment: Akt Phosphorylation Assay (western blot), Panc-1; format: cell-based, human; details: at 10 μM, * = activation
How it was run: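 Panc-1 (KRas G12D) cells were treated with compound at 10 μM final (0.3% DMSO) for 6 h at 37 °C, or with serial dilutions for IC50. Cells were either serum-starved overnight in 0.5% FBS and then stimulated with 1.5 ng/ml EGF for 15 min, or kept in 10% FBS without stimulation. Akt Ser473 phosphorylation in lysates was read by western blot.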

## COc1cc(-c2cn3nc(-c4nccn4C)nc(N[C@H]4C[C@H](OC)C4)c3c2C)ccn1 [Compound 160, N-((1r,3r)-3-Methoxycyclobutyl)-6-(2-methoxypyridin-4-yl)-5-methyl-2-(1-methyl-1H-imidazol-2-yl)pyrrolo[2,1-f][1,2,4]triazin-4-amine]
KRas wild type
  KRas wild type + SOS: % inh.: 0 (0 = 0% inhibition)
  KRas wild type: % inh.: 0 (0 = 0% inhibition)
KRas G12D mutant
  KRas G12D mutant + SOS: % inh.: A (A = 1-25% inhibition)
  KRas G12D mutant: % inh.: 0 (0 = 0% inhibition)
Rac-1
  inhibition at 20 µM: 1 to 25%
IL6
  inhibition: 75 to 100%
Akt phosphorylation
  % inh of Akt phosphorylation in Panc-1: B* (26-49% activation)

## CO[C@H]1C[C@@H](Nc2nc(-c3nccn3C)nn3cc(-c4cccnc4)c(C)c23)C1 [Compound 153, N-((1s,3s)-3-methoxy-cyclobutyl)-5-methyl-2-(1-methyl-1H-imidazol-2-yl)-6-(pyridin-3-yl)pyrrolo[2,1-f][1,2,4]triazin-4-amine]
KRas wild type
  KRas wild type + SOS: % inh.: B (B = 26-49% inhibition)
  KRas wild type: % inh.: B (B = 26-49% inhibition)
KRas G12D mutant
  KRas G12D mutant + SOS: % inh.: C (C = 50-75% inhibition)
  KRas G12D mutant: % inh.: C (C = 50-75% inhibition)
Rac-1
  inhibition at 20 µM: 50 to 75%
IL6
  inhibition: 0%
Akt phosphorylation
  % inh of Akt phosphorylation in Panc-1: B (26-49% inhibition)

## CO[C@H]1CC[C@@H](Nc2nc(-c3nccn3C)nn3cc(-c4cccnc4)c(C)c23)C1 (racemic) [Compound 155, rac N-((1R,3S)-3-methoxy-cyclopentyl)-5-methyl-2-(1-methyl-1H-imidazol-2-yl)-6-(pyridin-3-yl)pyrrolo[2,1-f][1,2,4]triazin-4-amine]
KRas wild type
  KRas wild type + SOS: % inh.: A (A = 1-25% inhibition)
  KRas wild type: % inh.: A (A = 1-25% inhibition)
KRas G12D mutant
  KRas G12D mutant + SOS: % inh.: A (A = 1-25% inhibition)
  KRas G12D mutant: % inh.: A (A = 1-25% inhibition)
Rac-1
  inhibition at 20 µM: 1 to 25%
IL6
  inhibition: 25 to 49%
Akt phosphorylation
  % inh of Akt phosphorylation in Panc-1: A (1-25% inhibition)

## Cc1c(-c2ccn(C)n2)cn2nc(-c3nccn3C)nc(Cl)c12 [Compound 99, 4-Chloro-5-methyl-2-(1-methyl-1H-imidazol-2-yl)-6-(1-methyl-1H-pyrazol-3-yl)pyrrolo[2,1-f][1,2,4]triazine]
KRas wild type
  KRas wild type + SOS: % inh.: B (B = 26-49% inhibition)
  KRas wild type: % inh.: C (C = 50-75% inhibition)
KRas G12D mutant
  KRas G12D mutant + SOS: % inh.: B (B = 26-49% inhibition)
  KRas G12D mutant: % inh.: B (B = 26-49% inhibition)
Rac-1
  inhibition at 20 µM: 50 to 75%
IL6
  inhibition: 75 to 100%
Akt phosphorylation
  % inh of Akt phosphorylation in Panc-1: A* (1-25% activation)

## Cc1c(-c2ccn(C3CC3)n2)cn2nc(-c3nccn3C)nc(Nc3cc(OC(F)F)ccn3)c12 [Compound 139, 6-(1-Cyclopropyl-1H-pyrazol-3-yl)-N-(4-(difluoromethoxy)pyridin-2-yl)-5-methyl-2-(1-methyl-1H-imidazol-2-yl)pyrrolo[2,1-f][1,2,4]triazin-4-amine]
KRas wild type
  KRas wild type + SOS: % inh.: D (D = 76-100% inhibition)
  KRas wild type: % inh.: D (D = 76-100% inhibition)
KRas G12D mutant
  KRas G12D mutant + SOS: % inh.: D (D = 76-100% inhibition)
  KRas G12D mutant: % inh.: D (D = 76-100% inhibition)
Rac-1
  inhibition at 20 µM: 76 to 100%
IL6
  inhibition: 50 to 74%
Akt phosphorylation
  % inh of Akt phosphorylation in Panc-1: D* (85-100% activation)

## COCCO[C@H]1C[C@H](Nc2nc(-c3nccn3C)nn3cc(-c4ccn(C)n4)c(C)c23)C1 [Compound 130, N-((1r,3r)-3-(2-Methoxyethoxy)cyclobutyl)-5-methyl-2-(1-methyl-1H-imidazol-2-yl)-6-(1-methyl-1H-pyrazol-3-yl)pyrrolo[2,1-f][1,2,4]triazin-4-amine]
KRas wild type
  KRas wild type + SOS: % inh.: 0 (0 = 0% inhibition)
  KRas wild type: % inh.: A (A = 1-25% inhibition)
KRas G12D mutant
  KRas G12D mutant + SOS: % inh.: A (A = 1-25% inhibition)
  KRas G12D mutant: % inh.: B (B = 26-49% inhibition)
Rac-1
  inhibition at 20 µM: 0%
IL6
  inhibition: 0%
Akt phosphorylation
  % inh of Akt phosphorylation in Panc-1: D* (85-100% activation)

## Cc1c(-c2ccn(C3CC3)n2)cn2nc(-c3nccn3C)nc(Nc3ccccn3)c12 [Compound 143, 6-(1-Cyclopropyl-1H-pyrazol-3-yl)-5-methyl-2-(1-methyl-1H-imidazol-2-yl)-N-(pyridin-2-yl)pyrrolo[2,1-f][1,2,4]triazin-4-amine]
KRas wild type
  KRas wild type + SOS: % inh.: D (D = 76-100% inhibition)
  KRas wild type: % inh.: D (D = 76-100% inhibition)
KRas G12D mutant
  KRas G12D mutant + SOS: % inh.: D (D = 76-100% inhibition)
  KRas G12D mutant: % inh.: D (D = 76-100% inhibition)
Rac-1
  inhibition at 20 µM: 76 to 100%
IL6
  inhibition: 75 to 100%
Akt phosphorylation
  % inh of Akt phosphorylation in Panc-1: D* (85-100% activation)

## COc1cnc(Nc2nc(-c3nccn3C)nn3cc(-c4ccn(C)n4)c(C)c23)nc1.Cl [Compound 117, N-(5-Methoxypyrimidin-2-yl)-5-methyl-2-(1-methyl-1H-imidazol-2-yl)-6-(1-methyl-1H-pyrazol-3-yl)pyrrolo[2,1-f][1,2,4]triazin-4-amine hydrochloride salt]
KRas wild type
  KRas wild type + SOS: % inh.: A (A = 1-25% inhibition)
  KRas wild type: % inh.: A (A = 1-25% inhibition)
KRas G12D mutant
  KRas G12D mutant + SOS: % inh.: A (A = 1-25% inhibition)
  KRas G12D mutant: % inh.: A (A = 1-25% inhibition)
Rac-1
  inhibition at 20 µM: 1 to 25%
IL6
  inhibition: 1 to 24%
Akt phosphorylation
  % inh of Akt phosphorylation in Panc-1: B (26-49% inhibition)

## COc1cccnc1Nc1nc(-c2nccn2C)nn2cc(-c3ccn(C)n3)c(C)c12 [Compound 112, N-(3-Methoxypyridin-2-yl)-5-methyl-2-(1-methyl-1H-imidazol-2-yl)-6-(1-methyl-1H-pyrazol-3-yl)pyrrolo[2,1-f][1,2,4]triazin-4-amine]
KRas wild type
  KRas wild type + SOS: % inh.: 0 (0 = 0% inhibition)
  KRas wild type: % inh.: A (A = 1-25% inhibition)
KRas G12D mutant
  KRas G12D mutant + SOS: % inh.: A (A = 1-25% inhibition)
  KRas G12D mutant: % inh.: A (A = 1-25% inhibition)
Rac-1
  inhibition at 20 µM: 0%
IL6
  inhibition: 25 to 49%
Akt phosphorylation
  % inh of Akt phosphorylation in Panc-1: D* (85-100% activation)

## Cc1c(-c2ccn(C)n2)cn2nc(-c3nccn3C)nc(Nc3cc4n(n3)CCC4)c12 [Compound 100, N-(5,6-Dihydro-4H-pyrrolo[1,2-b]pyrazol-2-yl)-5-methyl-2-(1-methyl-1H-imidazol-2-yl)-6-(1-methyl-1H-pyrazol-3-yl)pyrrolo[2,1-f][1,2,4]triazin-4-amine]
KRas wild type
  KRas wild type + SOS: % inh.: D (D = 76-100% inhibition)
  KRas wild type: % inh.: D (D = 76-100% inhibition)
KRas G12D mutant
  KRas G12D mutant + SOS: % inh.: D (D = 76-100% inhibition)
  KRas G12D mutant: % inh.: D (D = 76-100% inhibition)
Rac-1
  inhibition at 20 µM: 76 to 100%
IL6
  inhibition: 50 to 74%
Akt phosphorylation
  % inh of Akt phosphorylation in Panc-1: D* (85-100% activation)

## Cc1c(-c2ccn(C)n2)cn2nc(-c3nccn3C)nc(Nc3cc(C4CC4)[nH]n3)c12 [Compound 104, N-(5-Cyclopropyl-1H-pyrazol-3-yl)-5-methyl-2-(1-methyl-1H-imidazol-2-yl)-6-(1-methyl-1H-pyrazol-3-yl)pyrrolo[2,1-f][1,2,4]triazin-4-amine]
KRas wild type
  KRas wild type + SOS: % inh.: D (D = 76-100% inhibition)
  KRas wild type: % inh.: D (D = 76-100% inhibition)
KRas G12D mutant
  KRas G12D mutant + SOS: % inh.: D (D = 76-100% inhibition)
  KRas G12D mutant: % inh.: D (D = 76-100% inhibition)
Rac-1
  inhibition at 20 µM: 76 to 100%
IL6
  inhibition: 75 to 100%
Akt phosphorylation
  % inh of Akt phosphorylation in Panc-1: D* (85-100% activation)

## COCCO[C@H]1C[C@H](Nc2nc(-c3nccn3C)nn3cc(-c4cccnc4)c(C)c23)C1 [Compound 152, N-((1r,3r)-3-(2-methoxyethoxy)cyclo-butyl)-5-methyl-2-(1-methyl-1H-imidazol-2-yl)-6-(pyridin-3-yl)pyrrolo[2,1-f][1,2,4]triazin-4-amine]
KRas wild type
  KRas wild type + SOS: % inh.: B (B = 26-49% inhibition)
  KRas wild type: % inh.: C (C = 50-75% inhibition)
KRas G12D mutant
  KRas G12D mutant + SOS: % inh.: C (C = 50-75% inhibition)
  KRas G12D mutant: % inh.: C (C = 50-75% inhibition)
Rac-1
  inhibition at 20 µM: 50 to 75%
IL6
  inhibition: 1 to 24%
Akt phosphorylation
  % inh of Akt phosphorylation in Panc-1: B* (26-49% activation)
